Test: xn = mol fraction of the nth substance listed

BrC(Br)Br + CCCCCCC(C)O
viscosity [mPa·s], 101.3 kPa
Details | x1 = 0.104 | x1 = 0.199 | x1 = 0.3 | x1 = 0.403 | x1 = 0.502 | x1 = 0.603 | x1 = 0.704 | x1 = 0.801 | x1 = 0.899
298.15 K | 5.244 | 4.606 | 3.91 | 3.391 | 2.965 | 2.623 | 2.337 | 2.123 | 1.969
303.15 K | 4.336 | 3.855 | 3.348 | 2.937 | 2.594 | 2.335 | 2.104 | 1.943 | 1.83
308.15 K | 3.625 | 3.274 | 2.894 | 2.566 | 2.288 | 2.084 | 1.913 | 1.785 | 1.698

BrC(Br)Br + Nc1ccccc1
298.15 K, 101 kPa
Details | viscosity [mPa·s]
x1 = 0.1402 | 3.373
x1 = 0.2067 | 3.235
x1 = 0.3151 | 3.026
x1 = 0.4133 | 2.856
x1 = 0.5137 | 2.657
x1 = 0.614 | 2.486
x1 = 0.701 | 2.349
x1 = 0.808 | 2.196

CC12CC3CC(C1)CC(C)(C3)C2 + C1C[C@@H]2[C@H]3CC[C@H](C3)[C@@H]2C1
viscosity [mPa·s], 100 kPa
Details | x1 = 0.1021 | x1 = 0.2015 | x1 = 0.3018 | x1 = 0.4005 | x1 = 0.4981 | x1 = 0.602 | x1 = 0.6998 | x1 = 0.8051 | x1 = 0.8993
293.15 K | 3.147 | 3.237 | 3.335 | 3.436 | 3.513 | 3.592 | 3.657 | – | 3.747
298.15 K | 2.841 | 2.922 | 3.002 | 3.084 | 3.151 | 3.22 | 3.273 | – | 3.342
303.15 K | 2.582 | 2.65 | 2.717 | 2.787 | 2.847 | 2.904 | – | – | 3.002
313.15 K | 2.158 | 2.207 | 2.257 | 2.307 | 2.353 | – | – | 2.451 | 2.458
323.15 K | 1.796 | – | – | – | 1.955 | 1.989 | 2.012 | – | 2.046

C=Cc1ccccc1 + CN(C)C=O
viscosity [mPa·s], 101.33 kPa
Details | x1 = 0.109 | x1 = 0.2013 | x1 = 0.2959 | x1 = 0.3998 | x1 = 0.5052 | x1 = 0.6012 | x1 = 0.6979 | x1 = 0.8049 | x1 = 0.8976
298.15 K | 0.831 | 0.845 | 0.854 | 0.858 | 0.86 | 0.856 | 0.847 | 0.825 | 0.794
303.15 K | 0.78 | 0.79 | 0.801 | 0.804 | 0.802 | 0.798 | 0.79 | 0.768 | 0.735
308.15 K | 0.732 | 0.742 | 0.749 | 0.75 | 0.749 | 0.746 | 0.739 | 0.717 | 0.685

CC(C)(C)N + COC(C)=O
303.15 K, 101 kPa
Details | viscosity [mPa·s]
x1 = 0.1513 | 0.3868
x1 = 0.247 | 0.4006
x1 = 0.3175 | 0.4155
x1 = 0.4152 | 0.4301
x1 = 0.5361 | 0.4379
x1 = 0.7023 | 0.4413
x1 = 0.771 | 0.4432
x1 = 0.8641 | 0.4438

O=c1oc2ccccc2c(O)c1C(c1ccccc1)c1c(O)c2ccccc2oc1=O + CS(C)=O
viscosity [mPa·s], 100 kPa
Details | x1 = 0.0007822 | x1 = 0.001562 | x1 = 0.002337 | x1 = 0.003116 | x1 = 0.003894 | x1 = 0.004664
293.15 K | 2.346 | 2.469 | 2.592 | 2.715 | 2.839 | 2.963
298.15 K | 2.068 | 2.179 | 2.286 | 2.394 | 2.502 | 2.611
303.15 K | 1.883 | 1.966 | 2.063 | 2.161 | 2.256 | 2.352
308.15 K | 1.684 | 1.755 | 1.825 | 1.909 | 1.992 | 2.076
313.15 K | 1.519 | 1.578 | 1.638 | 1.713 | 1.789 | 1.862

BrC(Br)Br + Cc1ccccc1
viscosity [mPa·s], 101 kPa
Details | x1 = 0.1032 | x1 = 0.1993 | x1 = 0.2989 | x1 = 0.3999 | x1 = 0.4985 | x1 = 0.5956 | x1 = 0.6977 | x1 = 0.7959 | x1 = 0.8985
298.15 K | 0.6593 | 0.7557 | 0.8686 | 0.9945 | 1.136 | 1.287 | 1.449 | 1.622 | 1.801
303.15 K | 0.6236 | 0.7133 | 0.817 | 0.936 | 1.068 | 1.207 | 1.358 | 1.519 | 1.688
308.15 K | 0.5877 | 0.6722 | 0.7592 | 0.8765 | 1.001 | 1.131 | 1.273 | 1.426 | 1.583
313.15 K | 0.5544 | 0.6324 | 0.7238 | 0.8262 | 0.939 | 1.061 | 1.194 | 1.335 | 1.483

CCCCCCCCO + c1ccccc1
viscosity [mPa·s]
Details | 293.15 K | 298.15 K | 303.15 K | 313.15 K | 323.15 K
100 kPa, x2 = 0.0834 | 7.415 | – | 5.248 | 3.685 | 2.768
100 kPa, x2 = 0.1711 | 6.045 | – | 4.294 | 2.932 | 2.235
100 kPa, x2 = 0.2512 | 5.033 | – | 3.532 | 2.393 | 1.821
100 kPa, x2 = 0.3602 | 3.894 | – | 2.682 | 1.807 | 1.365
100 kPa, x2 = 0.4552 | 3.069 | – | 2.085 | 1.4 | 1.062
100 kPa, x2 = 0.5612 | 2.333 | – | 1.545 | 1.076 | 0.818
100 kPa, x2 = 0.6483 | 1.824 | – | 1.236 | 0.904 | 0.7
100 kPa, x2 = 0.7524 | 1.334 | – | 0.957 | 0.736 | 0.594
100 kPa, x2 = 0.8537 | 0.975 | – | 0.736 | 0.608 | 0.516
100 kPa, x2 = 0.9502 | 0.748 | – | 0.612 | 0.525 | 0.455
101.33 kPa, x1 = 0.2 | – | 0.863 | – | – | 0.57

CCCCCCCCO + CS(C)=O
101 kPa
Details | viscosity [mPa·s]
303.15 K, x2 = 0.1888 | 4.267
303.15 K, x2 = 0.3612 | 3.296
303.15 K, x2 = 0.519 | 2.593
303.15 K, x2 = 0.6642 | 2.26
303.15 K, x2 = 0.7982 | 1.965
303.15 K, x2 = 0.9223 | 1.757
313 K, x2 = 0.1243 | 3.69
313 K, x2 = 0.2177 | 3.282
313 K, x2 = 0.4192 | 2.668
313 K, x2 = 0.5194 | 2.442
313 K, x2 = 0.6221 | 2.22
313 K, x2 = 0.714 | 2.034
313 K, x2 = 0.8145 | 1.894
313 K, x2 = 0.902 | 1.664

From the CheMixHub viscosity set
